Measurements taken from US20190008149A1, “HERBICIDAL COMPOSITIONS CONTAINING 4-AMINO-3-CHLORO-6-(4-CHLORO-2-FLUORO-3-METHOXYPHENYL) PYRIDINE-2-CARBOXYLIC ACID OR A DERIVATIVE THEREOF AND A CELL MEMBRANE DISRUPTOR HERBICIDE OR A DERIVATIVE THEREOF” (Dow AgroSciences LLC, priority 2015, published 2019).
Where “and” joins values, the source holds several entries; their conditions need not be identical. Equal entries are not always repeated.

Tested on: ERISS=Conyza species (fleabane, ERISS)
Assay: Field trial, post-emergence foliar application, percent weed control visually rated
Type: in vivo
From the text: Treatments consisted of the methyl ester of 4-amino-3-chloro-6-(4-chloro-2-fluoro-3-methoxyphenyl)pyridine-2-carboxylic acid (Cmpd 1) tankmixed with saflufenacil or paraquat. The form of compound of formula (I) was applied on an acid equivalent basis, and saflufenacil and paraquat were applied on an active ingredient basis. Saflufenacil was applied as a commercial formulation containing 700 grams per kilogram (g/kg). Paraquat was applied as a commercial formulation containing 200 g/L.
Field trials were conducted under standard field conditions. Plot sizes varied from 2 meters (m) wide by 5 m long. Treatments were applied with small plot backpack sprayers, using pressurized carbon dioxide (CO2) as propellant. Pressure varied from 40-45 pounds per square inch (PSI), with spray tips typically of a Flat Fan type applying water diluent at 100 liters per hectare (L/ha). Boom size was 2 m in width. Weed sizes varied, but all treatments were applied as post-emergence treatments to weeds from 2 leaf to 2 tiller growth stages varying from 2-15 inches in height. No additional adjuvant was mixed with the treatments applied in the field.
Results in Tables 1 to 2 are field trial results for foliar applied compositions. The values reported are percent (%) control visually rated. The predicted percent (%) weed contol was determined using Colby's equation.
ERISS=Conyza species (fleabane, ERISS) g ae/ha=grams acid equivalent per hectare g ai/ha=grams active ingredient per hectare Mean % weed control=observed value of percent (%) control rated visually Predicted mean % weed control=expected value of percent (%) control as calculated by Colby's equation Cmpd 1=methyl 4-amino-3-chloro-6-(4-chloro-2-fluoro-3-methoxyphenyl)pyridine-2-carboxylate, halauxifen-methyl, or ARYLEX® DAA=days after application

## CC(C)N(C)S(=O)(=O)NC(=O)c1cc(-n2c(=O)cc(C(F)(F)F)n(C)c2=O)c(F)cc1Cl [Saflufenacil, 2-chloro-5-[3,6-dihydro-3-methyl-2,6-dioxo-4-(trifluoromethyl)-1(2H)-pyrimidinyl]-4-fluoro-N-[[methyl(1-methylethyl)amino]sulfonyl]benzamide, reference compound]
Saflufenacil alone, 49 g ai/ha, 17DAA
  Mean % weed control: 66.25%
Saflufenacil alone, 49 g ai/ha, 28DAA
  Mean % weed control: 66.25%

## COC(=O)c1nc(-c2ccc(Cl)c(OC)c2F)cc(N)c1Cl [Cmpd 1, methyl 4-amino-3-chloro-6-(4-chloro-2-fluoro-3-methoxyphenyl)pyridine-2-carboxylate]
Cmpd 1 alone, 5 g ae/ha, 17DAA
  Mean % weed control: 33.75%
Cmpd 1 alone, 5 g ae/ha, 28DAA
  Mean % weed control: 33.75% and 46.25%
Cmpd 1 alone, 5 g ae/ha, 43DAA
  Mean % weed control: 40% and 57.5%
